Assay in all cases: growth of human tumour cells (NCI), 48 h
The subject of assay [1] is EKVX NSCLC.
For assay [2], the system named is HCC-2998 colon.
In assay [3] the test system is IGROV1 ovarian.
Assay [4] relates to NCI-H522 lung.
In assay [5] the test system is NCI/ADR-RES ovarian.
For assay [6], the system named is OVCAR-5 ovarian.
The test system of assay [7] is RXF 393 renal.
Assay [8] concerns SK-OV-3 ovarian.
The test system of assay [9] is UACC-62 melanoma.

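Dose response: 5 concentrations. Exposure: 48 h. Format: 96-well plates. Endpoint: linear interpolation; highest concentration if not reached. The concentration for 50% growth inhibition is given as GI50. TGI marks complete inhibition of growth.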

Consider `c1csc(-c2csc(-c3cccs3)c2)c1`, for which the TGI in [1], in assay [2], in assay [3], in [4], in assay [5] and in assay [6] was greater than 100 µM each time. For the same molecule, the TGI was 74 µM in assay [7], greater than 100 µM in assay [8] and greater than 100 µM in assay [9].
As for `O=C(n1c(=O)n(-c2ccc([N+](=O)[O-])cc2)c(=O)n1C(=O)C(Cl)(Cl)Cl)C(Cl)(Cl)Cl`, the TGI in assay [1], in assay [2], in assay [3], in assay [4], in assay [5] and in assay [6] was greater than 100 µM throughout. Moreover, the TGI in assay [7], in assay [8] and in assay [9] was greater than 100 µM throughout.
`Cc1cc(C(C)(C)C)c(OCCCN2CCOCC2)c(C(C)(C)C)c1`: the TGI is 32.5 µM in [1]; 30.3 µM in [2]; 34.2 µM in [3]; 33.2 µM in assay [4]; 32 µM in assay [5]; 33 µM in assay [6]. Moreover, the TGI in assay [7] turned out to be 31.9 µM; in [8], 35.6 µM; in [9], 29.8 µM.
For the molecule `NC(=S)N1N=C(c2ccc3c(c2)CCC3)CC1c1ccccc1` (centres undefined), the TGI in assay [1] was greater than 100 µM; in assay [2], 36.8 µM; in assay [3] it was greater than 100 µM; in assay [4], 24.7 µM; in assay [5], 58.6 µM; in [6], greater than 100 µM. The TGI in assay [7] was found to be 28 µM; in assay [8], 88.6 µM; in [9], 74.1 µM.
As for `CC1=C(C(=O)OC(C)C)C(c2cccc([N+](=O)[O-])c2)C(C(=O)OC(CO[N+](=O)[O-])CO[N+](=O)[O-])=C(C)N1` (centres undefined), the TGI in [1] is greater than 27.7 µM; in assay [2], 18.3 µM; in [3], greater than 87.6 µM; in assay [4] it was 6.77 µM; in assay [5] it was greater than 25.2 µM; in assay [6], 21.5 µM. The TGI is 58.1 µM in assay [7], greater than 100 µM in assay [8] and 9.58 µM in assay [9].
As for `CN(NC(=O)/C(=C/C=C/c1ccccc1)NC(=O)c1ccccc1)C1=C(Cl)C(=O)[N+](c2ccccc2)=CC1`, the TGI in assay [1] is greater than 100 µM; in assay [3], 46.8 µM; in assay [4], 61.5 µM; in assay [5], 53.8 µM; in assay [6] it was greater than 100 µM; in assay [7], 53.8 µM. In [8], this molecule had a TGI greater than 100 µM.
Turning to `O=C(O)c1cc2c(cc1CC(Cc1ccccc1)C(=O)O)CCC2` (centres undefined), the TGI in assay [1], in assay [2], in [3], in [4], in assay [5] and in assay [6] was greater than 100 µM in each case. Further, the TGI in assay [7] and in assay [8] was greater than 100 µM in each case.
As for `O=C(NC(Cc1c[nH]c2ccccc12)C(=O)O)/C(=C/c1ccccc1)NC(=O)c1ccccc1` (centres undefined), the TGI in assay [1] is greater than 100 µM; in assay [2] it was greater than 100 µM; in assay [3] it was greater than 100 µM; in assay [4], greater than 88.7 µM; in [5], greater than 100 µM; in assay [6], greater than 100 µM. For the same molecule, the TGI in assay [7], in [8] and in [9] was greater than 100 µM throughout.
Consider `CCOc1cc(C=Nc2ccc(Oc3ccc(Cl)cc3)c(Cl)c2)ccc1O`, for which the TGI in assay [1] is 41.3 µM; in [2] it was 43.4 µM; in assay [3] it was 60.6 µM; in assay [4], 31.9 µM; in [5], 52.9 µM; in assay [6], 79.7 µM. In addition, the TGI in assay [8] amounted to 58.3 µM; in [9], 50.9 µM.
`CCCCCCCCCC[C@@H](O)[C@H]1CC[C@@H]([C@H]2CC[C@H]([C@H](O)CCCCCCCCCC[C@@H]3CC(CC(C)=O)C(=O)O3)O2)O1` (some centres undefined): the GI50 in assay [1] is 19.2 µM; in assay [5], 11.9 µM. Further, the TGI in [1] is greater than 100 µM; in assay [2] it was 62.5 µM; in [3] it was greater than 100 µM; in assay [4], 37.1 µM; in assay [6], greater than 100 µM; in [7], 24.8 µM.
As to `Oc1cc(Br)cc2cc(Br)cnc12`, the TGI in [1] was 37.4 µM; in assay [2] it was 57.3 µM; in assay [3], 12.6 µM; in [4] it was 8.2 µM; in assay [5], greater than 100 µM; in [7] it was 10.9 µM. The TGI was greater than 100 µM in assay [8] and 5.88 µM in assay [9].
`O/N=C1/CCCCC1NO` (centres undefined): the TGI in assay [1], in [2], in assay [3], in [5], in assay [6] and in [7] was greater than 100 µM each time. Further, the TGI in assay [8] and in assay [9] was greater than 100 µM throughout.
As for `CC(=O)Oc1ccc(-c2c(OC(C)=O)c(OC(C)=O)c(-c3ccc(OC(C)=O)c(OC(C)=O)c3)c(OC(C)=O)c2OC(C)=O)cc1`, the TGI is 20.2 µM in assay [1]; 28.8 µM in [3]; 18.4 µM in assay [4]; greater than 100 µM in [5]; 25 µM in [6]; 36.1 µM in assay [7]. For the same molecule, the values for the TGI in assay [8] and in assay [9] were 69 µM and 33.7 µM, respectively.
For `C[N+](C)(C)c1nc(N)nc2c1ncn2C1OC(CO)C(O)C1O` (centres undefined), the TGI in assay [1], in assay [2], in [3], in assay [4], in assay [5] and in assay [6] was greater than 100 µM throughout. Moreover, the TGI in assay [7], in [8] and in assay [9] was greater than 100 µM throughout.
Turning to `O=c1[nH]nc(Cc2ccc([N+](=O)[O-])cc2)[nH]1`, the TGI in [1], in [2], in assay [3], in [4], in assay [5] and in [6] was greater than 100 µM each time. Besides, the TGI in assay [7] and in [9] was greater than 100 µM throughout.
Consider `Nc1ncc(Cc2nn3c(COc4ccc(Cl)cc4)nnc3s2)s1`, for which the TGI in assay [1], in assay [2], in assay [3], in assay [4], in assay [5] and in [6] was greater than 100 µM in each case. The TGI in [7], in assay [8] and in assay [9] was greater than 100 µM in each case.
In the case of `Cc1ccc2c3ccc4c(c3n(C)c2c1)C(=O)C=CC4=O`, the TGI in [1] was greater than 10 µM; in assay [2] it was greater than 10 µM; in [3], greater than 10 µM; in assay [4], 4.75 µM; in assay [5], greater than 10 µM; in [6], greater than 10 µM. For the same molecule, the results for the TGI in assay [7], in assay [8] and in [9] were greater than 7.63 µM, greater than 10 µM and greater than 10 µM, respectively.
Consider `COC(=O)C[C@H]1[C@]2(C)C3=C(C)[C@H](c4ccoc4)CC3O[C@@H]2[C@@H]2OC(=O)[C@]3(C)CCC(=O)[C@@]1(C)[C@@H]23` (some centres undefined), for which the TGI in [3] was greater than 100 µM; in [4], 91.1 µM; in assay [5], greater than 100 µM; in assay [6] it was 67.3 µM; in [7], greater than 100 µM; in assay [8], greater than 100 µM. In addition, in assay [9], the TGI is greater than 100 µM.
Take `Cc1ccc2c(=O)c3c(O)c4c(cc3n(C)c2c1)OC(C)(C)C=C4`: the TGI in [1], in assay [2], in [3], in [4], in assay [5] and in [6] was greater than 10 µM in each case. The TGI in assay [7], in assay [8] and in assay [9] was greater than 10 µM in each case.
With `Cc1cccc(/C=N/NC(=S)NC(C)(C)C)n1`, the TGI in [2], in assay [3], in assay [4], in assay [5], in [6] and in assay [8] was greater than 100 µM throughout. Moreover, the TGI in assay [9] is greater than 100 µM.
`COC(=O)[C@]12CCC(=O)N1[C@H](C(=O)O)Cc1c2[nH]c2ccccc12`: the TGI in [1], in assay [2], in assay [3], in assay [4], in assay [5] and in [6] was greater than 100 µM in each case. The TGI in [7], in assay [8] and in assay [9] was greater than 100 µM throughout.
Take `Cn1cnc([N+](=O)[O-])c1Sc1nncc2[nH]cnc12`: the TGI in assay [1], in [2], in assay [3], in assay [4], in [5] and in assay [6] was greater than 100 µM each time. The TGI in [8] and in [9] was greater than 100 µM each time.
`CN(C)CCCN1C(=O)N(CCCN(C)C)c2c3cc(O)ccc3nc3c([N+](=O)[O-])ccc1c23`: the TGI in [2] is 26.8 µM; in [3], 21.3 µM; in [4], 20.5 µM; in [5], greater than 100 µM; in assay [6], greater than 100 µM; in assay [7], 25.1 µM. Also, the TGI in [8] is greater than 100 µM; in assay [9], 27.3 µM.
Turning to `COc1cc(/C=C/C=C2\CC(C)C/C(=C\C=C\c3ccc(O)c(OC)c3)C2=O)ccc1O` (centres undefined), the TGI in assay [1] is greater than 100 µM; in [2], greater than 100 µM; in assay [3], 20.8 µM; in assay [4] it was 2.5 µM; in assay [5], 77.4 µM; in [6], 28.8 µM. Moreover, the TGI in assay [8] was found to be 18.2 µM; in assay [9] it was 26.7 µM.
Consider `OCC1=C[C@@](COCc2ccccc2)(OCc2ccccc2)[C@@H](OCc2ccccc2)[C@@H]1OCc1ccccc1`, for which the TGI in [1] worked out at 51.4 µM; in assay [2] it was 32.3 µM; in assay [3] it was 38.5 µM; in assay [4] it was 51 µM; in [5], 16.9 µM; in [6] it was 60.3 µM. For the same molecule, the figures for the TGI in assay [7] and in assay [9] were 18.4 µM and 39 µM, respectively.
In the case of `CN(CCc1ccccn1)C(=S)N/N=C/c1ccccn1`, the TGI in assay [2] was 37.7 µM; in assay [3], 1.21 µM; in assay [4], 0.29 µM; in [5], 18 µM; in assay [6], 44.6 µM; in assay [7] it was 2.98 µM. Further, the figures for the TGI in assay [8] and in assay [9] were greater than 51.3 µM and 15.7 µM, respectively.
In the case of `NCCCN1CCN(CCCNc2ccc3ncn4c5ccccc5c(=O)c2c34)CC1`, the TGI is 9.03 µM in assay [1]; 2.93 µM in assay [2]; 8.17 µM in assay [3]; 1.52 µM in assay [4]; greater than 25 µM in assay [5]; 19.3 µM in assay [6]. The TGI in assay [8] is greater than 25 µM; in assay [9], 6.18 µM.
As to `COc1cccc(C2c3cc4c(cc3OC(N3CCOCC3)C2C)OCO4)c1` (centres undefined), the TGI was 87.7 µM in assay [1]; greater than 100 µM in assay [3]; 75.3 µM in [4]; greater than 100 µM in assay [5]; 71.4 µM in [6]; greater than 100 µM in [8].
On to `COc1ccc(C2=C(N)c3ccccc3C2=O)cc1`, for which the TGI in [1], in [2], in assay [3], in assay [4], in [5] and in assay [6] was greater than 100 µM in each case. Moreover, the TGI in [8] and in assay [9] was greater than 100 µM in each case.
Regarding `CC(=O)N/N=C1\NN(C(C)=O)C2(S1)C(=O)Nc1ccccc12` (centres undefined), the TGI in assay [1], in assay [2], in [3], in assay [4], in assay [5] and in [6] was greater than 100 µM throughout. For the same molecule, the TGI in assay [8] and in [9] was greater than 100 µM throughout.
Consider `C=C1C[C@]23CC[C@@H]4C(CO)(CO)CC(=O)C[C@]4(C)[C@@H]2C(O)C[C@H]1C3` (some centres undefined), for which the TGI in assay [1], in assay [2], in [3], in [4], in assay [5] and in [6] was greater than 100 µM in each case. Further, the TGI in assay [8] and in [9] was greater than 100 µM throughout.

These data come from PubChem BioAssay (NCI).
